Assay results taken from article PMC10744612, “Genome Mining Reveals a Surprising Number of Sugar Reductases in Aspergillus niger” (Journal of Fungi, 2023).
Like-named read-outs stand apart in the source and are kept apart here.

Columns and labels:
Assay in all cases: NADPH oxidation at […] nm, Michaelis-Menten fit
Type in all cases: biochemical, Aspergillus niger
Conditions in all cases: 0.2 mM NADPH, HEPES pH 7.0
[1] = test system: T1, XyrB
T1 construct: recombinant plasmid from a previous study, His-tag purified from E. coli

[2] = test system: T2, SrdB
T2 construct: cDNA in pET-28a(+), His-tag purified from E. coli

[3] = test system: T3, SrdE
T3 construct: cDNA in pET-28a(+), His-tag purified from E. coli

**Q.** OC1OC[C@H](O)[C@H](O)[C@H]1O (stereo partly drawn) [L-arabinose] was tested. Which Km ([1]; read-out: L-arabinose / Km) did it give?
**A.** The Km was 12.3 mM.

**Q.** And the Km ([2]; read-out: L-arabinose / Km)?
**A.** The Km was 4.5 mM.

**Q.** What about the Km ([3]; read-out: L-arabinose / Km) of the same compound?
**A.** The Km was 4.3 mM.

**Q.** With OC1OC[C@@H](O)[C@H](O)[C@H]1O (stereo partly drawn) [D-xylose] as the compound, how does the Km ([1]; read-out: D-xylose / Km) read?
**A.** Its Km is 3 mM.

**Q.** And the Km ([2]; read-out: D-xylose / Km)?
**A.** The Km was 2.8 mM.

**Q.** And the Km ([3]; read-out: D-xylose / Km)?
**A.** The Km was 1.1 mM.
